Results taken from patent US5877183A, “Treatment of lipid and glucose metabolism disorders with dopamine and serotonin agonists” (Ergo Research Corporation, priority 1997, dated 1999).

What was measured:
[1] = timed administration; cited from earlier work
[2] = two-week treatment of C57BL/6 ob/ob mice (body weight, fat and lean body mass, food consumption, blood glucose, serum free fatty acids); type: in vivo, C57BL/6 ob/ob mice (lacking a functional leptin protein); settings: two weeks
Description: Different groups (8 mice per group) of 4-8 week old C57BL/6 ob/ob mice (lacking a functional leptin protein) were treated with:
1) vehicle at 1 and 11 hours after light onset (HALO);
2) Buspirone ("Busp"; a 5HT1A agonist) (3 mg/kg) at 11 HALO;
3) DOI (a 5HT2 agonist) (8 mg/kg) at 11 HALO;
4) RU24969 ("RU") (5HT1B agonist) (3 mg/kg) at 11 HALO;
5) bromocriptine ("BC") (12 mg/kg BW) at 1 HALO;
6) BC (12 mg/kg) at 1 HALO plus Buspirone (3 mg/kg) at 11 HALO;
7) BC (12 mg/kg) at 1 HALO plus DOI (8 mg/kg) at 11 HALO;
8) BC (12 mg/kg) at 1 HALO plus RU (3 mg/kg) at 11 HALO;
9) SKF38393 ("SKF") (D1 agonist) (20mg/kg BW) at 1 HALO; and
10) SKF(20 mg/kg) at 1 HALO plus RU (3 mg/kg) at 11 HALO for two weeks. Animals were held on 12-hour daily photoperiods and allowed to feed ad libitum. Food consumption was monitored daily for 3 days before the initiation of treatment throughout the 14-day treatment period. Animals were sacrificed between 1 and 3 HALO on the day following the final treatment and plasma was collected for the analyses of insulin, glucose, and lipids while the carcasses were solubilized in ethanolic KOH and analyzed for protein and lipid content. Blood glucose was measured with an Accu-Chek Advantage glucose meter (Boehringer). Serum insulin was measured with a radioimmunoassay kit (Linco Research) using rat insulin standards. Total triglycerides and free fatty acids were measured with kits from Sigma Diagnostics and Wako Chemicals, respectively. Body weight gain or loss as a result of treatment is depicted in FIG. 1. Fat body mass is depicted in FIG. 2.

[3] = cited from earlier work
[4] = in vivo; cited from earlier work
[5] = cited from earlier work; remark: listed apart in the source

SMILES	body fat stores / fat body mass (effect in words) [2]	body weight gain (effect in words) [2]	food intake / food consumption (effect in words) [2]	also measured
CC(C)C[C@H]1C(=O)N2CCC[C@H]2[C@]2(O)O[C@](NC(=O)[C@@H]3C=C4c5cccc6[nH]c(Br)c(c56)C[C@H]4N(C)C3)(C(C)C)C(=O)N12 [Bromocriptine, 2-bromo-alpha-ergocriptine]	ineffective	ineffective	ineffective	body fat stores (effect in words) [1]: reduce body fat stores; food consumption (effect in words) [1]: without a concomitant reduction in food consumption; hyperinsulinemia, hyperlipidemia, and glucose intolerance (effect in words) [1]: reduce hyperinsulinemia, hyperlipidemia, and glucose intolerance; locomotor stimulation and stereotyped behavior responses ([3]; after depletion of endogenous dopamine): blocked by depletion of endogenous dopamine; responsiveness in dopamine depleted animals given a D1 dopamine receptor agonist ([3]; dopamine depleted animals plus D1 agonist): restored
O=C1CC2(CCCC2)CC(=O)N1CCCCN1CCN(c2ncccn2)CC1 [Buspirone]	ineffective	ineffective	ineffective	–
COc1cc(CC(C)N)c(OC)cc1I (stereo not drawn) [DOI]	ineffective	ineffective	ineffective	–
COc1ccc2[nH]cc(C3=CCNCC3)c2c1 [RU]	–	significant decrease	significant decrease	–
Oc1cc2c(cc1O)C(c1ccccc1)CNCC2 (stereo not drawn) [SKF]	–	significant decrease	significant decrease	–
CCOC(=O)C(C)(C)Oc1ccc(Cl)cc1 [clofibrate]	–	–	–	side effects [4]: nephrotic syndromes, myalgia, nausea, and abdominal pain
CC[C@H](C)C(=O)O[C@H]1C[C@@H](C)C=C2C=C[C@H](C)[C@H](CC[C@@H]3C[C@@H](O)CC(=O)O3)[C@H]21 [lovastatin]	–	–	–	total cholesterol (effect in words) ([5]; in vivo): reduces total cholesterol; increase in HDL concentrations ([5]; lovastatin (MEVACOR)): 5-10%
